# Reference: patent publication US6544931B1, “Substituted heteroaryloxyacetanilides and their use as herbicides” (Bayer Aktiengesellschaft, priority 1999, dated 2003)
# Where two headings read alike, the source gives them in different places.
# Key:
# Alopecurus = test: Pre-emergence test/greenhouse; assay type: in vivo; conditions: 500 g of ai/ha, after three weeks
# Procedure: (§1) Solvent: 5 parts by weight of acetone
# (§2) Emulsifier: 1 part by weight of alkylaryl polyglycol ether
# (§3) To produce a suitable preparation of active compound, 1 part by weight of active compound is mixed with the stated amount of solvent, the stated amount of emulsifier is added and the concentrate is diluted with water to the desired concentration.
# (§4) Seeds of the test plants are sown in normal soil. After about 24 hours, the soil is sprayed with the preparation of active compound such that the particular amount of active compound desired is applied per unit area. The concentration of the spray liquor is chosen so that the particular amount of active compound desired is applied in 1000 litre of water per hectare.
# (§5) After three weeks, the degree of damage to the plants is rated in % damage in comparison to the development of the untreated controls.
# (§6) 0%=no effect (like untreated control)
# Avena fatua [1] = test: Pre-emergence test/greenhouse; assay type: in vivo; conditions: 500 g of ai/ha, after three weeks
# Procedure: as §1, §2, §3, §4, §5, §6
# Echinochloa = test: Pre-emergence test/greenhouse; assay type: in vivo; conditions: 500 g of ai/ha, after three weeks
# Procedure: as §1, §2, §3, §4, §5, §6
# Maize = test: Pre-emergence test/greenhouse; assay type: in vivo; conditions: after three weeks, crop plant
# Procedure: as §1, §2, §3, §4, §5, §6
# Setaria [2] = test: Pre-emergence test/greenhouse; assay type: in vivo; conditions: after three weeks
# Procedure: as §1, §2, §3, §4, §5, §6
# weeds [3] = test: Pre-emergence test; assay type: in vivo; conditions: result in words
# Procedure: as §1, §2, §3, §4, §5, §6
# Avena fatua [4] = test: Post-emergence test/greenhouse; assay type: in vivo; conditions: 500 g of ai/ha, after three weeks
# Procedure: as §1, §2, §3
# (§7) Test plants which have a height of 5 to 15 cm are sprayed with the preparation of active compound such that the particular amounts of active compound desired are applied per unit area. The concentration of the spray liquor is chosen so that the particular amounts of active compound desired are applied in 1000 l of water/ha.
# (§8) After three weeks, the degree of damage to the plants is rated in % damage in comparison to the development of the untreated control.
# as §6
# Galium = test: Post-emergence test/greenhouse; assay type: in vivo; conditions: after three weeks
# Procedure: as §1, §2, §3, §7, §8, §6
# Ipomoea = test: Post-emergence test/greenhouse; assay type: in vivo; conditions: 500 g of ai/ha, after three weeks
# Procedure: as §1, §2, §3, §7, §8, §6
# Setaria [5] = test: Post-emergence test/greenhouse; assay type: in vivo; conditions: after three weeks
# Procedure: as §1, §2, §3, §7, §8, §6
# weeds [6] = test: Post-emergence test; assay type: in vivo; conditions: result in words
# Procedure: as §1, §2, §3, §7, §8, §6
# [7] = logP by HPLC on reversed-phase column (EEC directive 79/831 Annex V.A8); assay type: physicochemical
# Procedure: The lopP values given in Table 1 were determined in accordance with EEC directive 79/831 Annex V.A8 by HPLC (High Performance Liquid Chromatography) on a reversed-phase column (C 18). Temperature: 43° C. (a) Mobile phases for the determination in the acidic range: 0.1% aqueous phosphoric acid, acetonitrile; linear gradient of 10% acetonitrile to 90% acetonitrile—corresponding data in Table 1 are labelled a). Calibration was carried out using unbranched alkan-2-ones (with 3 to 16 carbon atoms) whose logP values are known (determination of the logP values by the retention times using linear interpolation between two successive alkanones).
# Amaranthus [8] = test: Pre-emergence test/greenhouse; assay type: in vivo; conditions: after three weeks
# Procedure: as §1, §2, §3, §4, §5, §6
# Cotton = test: Pre-emergence test/greenhouse; assay type: in vivo; conditions: 500 g of ai/ha, after three weeks, crop plant
# Procedure: as §1, §2, §3, §4, §5, §6
# Eriochloa = test: Pre-emergence test/greenhouse; assay type: in vivo; conditions: 500 g of ai/ha, after three weeks
# Procedure: as §1, §2, §3, §4, §5, §6
# Lolium = test: Pre-emergence test/greenhouse; assay type: in vivo; conditions: 500 g of ai/ha, after three weeks
# Procedure: as §1, §2, §3, §4, §5, §6
# Amaranthus [9] = test: Post-emergence test/greenhouse; assay type: in vivo; conditions: after three weeks
# Procedure: as §1, §2, §3, §7, §8, §6
# Sinapis [10] = test: Post-emergence test/greenhouse; assay type: in vivo; conditions: after three weeks
# Procedure: as §1, §2, §3, §7, §8, §6
# Matricaria = test: Pre-emergence test/greenhouse; assay type: in vivo; conditions: 125 g of ai/ha, after three weeks
# Procedure: as §1, §2, §3, §4, §5, §6
# Veronica = test: Pre-emergence test/greenhouse; assay type: in vivo; conditions: 125 g of ai/ha, after three weeks
# Procedure: as §1, §2, §3, §4, §5, §6
# Sinapis [11] = test: Pre-emergence test/greenhouse; assay type: in vivo; conditions: 500 g of ai/ha, after three weeks
# Procedure: as §1, §2, §3, §4, §5, §6
# Digitaria = test: Pre-emergence test/greenhouse; assay type: in vivo; conditions: 500 g of ai/ha, after three weeks
# Procedure: as §1, §2, §3, §4, §5, §6
# Wheat = test: Pre-emergence test/greenhouse; assay type: in vivo; conditions: 500 g of ai/ha, after three weeks, crop plant
# Procedure: as §1, §2, §3, §4, §5, §6
# Sugar beet = test: Pre-emergence test/greenhouse; assay type: in vivo; conditions: 500 g of ai/ha, after three weeks, crop plant
# Procedure: as §1, §2, §3, §4, §5, §6
# [12] = reversed-phase HPLC column (C 18); a) acidic range: 0.1% aqueous phosphoric acid, acetonitrile gradient, HPLC C 18, 43° C., read-out: logP
smiles,measurement,setting,value
"CC(C)(C)N(C(=O)COc1nnc(C(F)(F)F)s1)c1ccc(Cl)cc1 [Example 1, N-(t-butyl)-N-(4-chlorophenyl)-2-(5-trifluoromethyl-1,3,4-thiadiazol-2-yl-oxy)-acetamide]","degree of damage, Alopecurus",Alopecurus,80%
same,"degree of damage, Avena fatua",Avena fatua [1],80%
same,"degree of damage, Echinochloa",Echinochloa,95%
same,"degree of damage, Maize",Maize; 500 g of ai/ha,0%
same,"degree of damage, Setaria",Setaria [2]; 500 g of ai/ha,100%
same,activity against weeds,weeds [3],strong activity
same,"degree of damage, Avena fatua",Avena fatua [4],80%
same,"degree of damage, Galium",Galium; 500 g of ai/ha,90%
same,"degree of damage, Ipomoea",Ipomoea,90%
same,"degree of damage, Setaria",Setaria [5]; 500 g of ai/ha,90%
same,activity against weeds,weeds [6],strong activity
same,melting point,,82 °C
C#CCN(C(=O)COc1nnc(C(F)(F)F)s1)c1cccc(C(F)(F)F)c1 [Example 3],chromatographic logP,[7]; [12],3.45
same,"degree of damage, Amaranthus",Amaranthus [8]; 500 g of ai/ha,100%
same,"degree of damage, Cotton",Cotton,0%
same,"degree of damage, Eriochloa",Eriochloa,95%
same,"degree of damage, Lolium",Lolium,100%
same,"degree of damage, Maize",Maize; 500 g of ai/ha,0%
same,"degree of damage, Setaria",Setaria [2]; 500 g of ai/ha,100%
same,activity against weeds,weeds [3],strong activity
same,"degree of damage, Amaranthus",Amaranthus [9]; 2000 g of ai/ha,100%
same,"degree of damage, Galium",Galium; 2000 g of ai/ha,90%
same,"degree of damage, Setaria",Setaria [5]; 2000 g of ai/ha,95%
same,"degree of damage, Sinapis",Sinapis [10]; 2000 g of ai/ha,100%
same,activity against weeds,weeds [6],strong activity
C#CCN(C(=O)COc1nnc(C(F)(F)F)s1)c1ccc(F)cc1 [Example 4],chromatographic logP,[7]; [12],2.97
same,"degree of damage, Amaranthus",Amaranthus [8]; 125 g of ai/ha,100%
same,"degree of damage, Maize",Maize; 125 g of ai/ha,0%
same,"degree of damage, Matricaria",Matricaria,100%
same,"degree of damage, Setaria",Setaria [2]; 125 g of ai/ha,100%
same,"degree of damage, Veronica",Veronica,100%
same,activity against weeds,weeds [3],strong activity
same,"degree of damage, Amaranthus",Amaranthus [9]; 2000 g of ai/ha,95%
same,"degree of damage, Galium",Galium; 2000 g of ai/ha,90%
same,"degree of damage, Setaria",Setaria [5]; 2000 g of ai/ha,90%
same,"degree of damage, Sinapis",Sinapis [10]; 2000 g of ai/ha,95%
same,activity against weeds,weeds [6],strong activity
C#CCN(C(=O)COc1nc2ccccc2o1)c1ccc(F)cc1 [Example 6],"degree of damage, Amaranthus",Amaranthus [8]; 500 g of ai/ha,100%
same,"degree of damage, Setaria",Setaria [2]; 500 g of ai/ha,100%
same,"degree of damage, Sinapis",Sinapis [11],95%
same,activity against weeds,weeds [3],strong activity
same,"degree of damage, Amaranthus",Amaranthus [9]; 500 g of ai/ha,90%
same,"degree of damage, Galium",Galium; 500 g of ai/ha,90%
same,"degree of damage, Setaria",Setaria [5]; 500 g of ai/ha,90%
same,activity against weeds,weeds [6],strong activity
same,melting point,,138 °C
CC(C)(C)N(C(=O)COc1nnc(C(F)(F)F)s1)c1ccc(F)cc1 [Example 7],"degree of damage, Alopecurus",Alopecurus,90%
same,"degree of damage, Amaranthus",Amaranthus [8]; 500 g of ai/ha,95%
same,"degree of damage, Digitaria",Digitaria,100%
same,"degree of damage, Eriochloa",Eriochloa,100%
same,"degree of damage, Setaria",Setaria [2]; 500 g of ai/ha,100%
same,"degree of damage, Wheat",Wheat,0%
same,activity against weeds,weeds [3],strong activity
same,"degree of damage, Amaranthus",Amaranthus [9]; 1000 g of ai/ha,80%
same,"degree of damage, Galium",Galium; 1000 g of ai/ha,95%
same,"degree of damage, Setaria",Setaria [5]; 1000 g of ai/ha,80%
same,"degree of damage, Sinapis",Sinapis [10]; 1000 g of ai/ha,80%
same,activity against weeds,weeds [6],strong activity
same,melting point,,85 °C
CC(C)(C)N(C(=O)COc1nnc(C(F)(F)F)s1)c1cccc(Cl)c1 [Example 9],"degree of damage, Echinochloa",Echinochloa,95%
same,"degree of damage, Maize",Maize; 500 g of ai/ha,0%
same,"degree of damage, Setaria",Setaria [2]; 500 g of ai/ha,100%
same,"degree of damage, Sugar beet",Sugar beet,0%
same,activity against weeds,weeds [3],strong activity
same,"degree of damage, Galium",Galium; 500 g of ai/ha,90%
same,"degree of damage, Ipomoea",Ipomoea,90%
same,"degree of damage, Setaria",Setaria [5]; 500 g of ai/ha,70%
same,activity against weeds,weeds [6],strong activity
same,melting point,,84 °C
"CC(C)(C)N(C(=O)CO)c1ccc(Cl)cc1 [III-1, N-(t-butyl)-N-(4-chlorophenyl)-2-hydroxyacetamide]",chromatographic logP,"[7]; reversed-phase HPLC column (C 18), pH=2.3, read-out: logP (at pH=2.3)",2.54
"C#CCN(C(=O)CO)c1ccc(F)cc1 [III-2, N-(4-fluorophenyl)-N-(2-propinyl)-2-hydroxyacetamide]",melting point,,57 °C
"CC(C)(C)N(C(=O)CCl)c1ccc(Cl)cc1 [IV-1, N-(t-butyl)-N-(4-chlorophenyl)-2-chloroacetamide]",chromatographic logP,"[7]; reversed-phase HPLC column (C 18), pH=2.5, read-out: logP (at pH=2.5)",3.34
"C#CCN(C(=O)CCl)c1ccc(F)cc1 [IV-2, N-(4-fluorophenyl)-N-(2-propinyl)-2-chloroacetamide]",logP,[7],logP = 2.69^a)
